The values below are quoted from earlier work in US20080138412A1, “Sustained release alfuzosin hydrochl formulation and method for their production” (priority 2006, published 2008).

SMILES strings stand for the structures. Where a name gives a salt, the structure may show the parent alone.

As to `COc1cc2nc(N(C)CCCNC(=O)C3CCCO3)nc(N)c2cc1OC` (stereo not shown) [Alfuzosin hydrochloride], the half-life result is reported as “about 9 hours”.
